According to patent US20150011484A1, “PRODRUGS OF D-GAMMA-GLUTAMYL-D-TRYPTOPHAN AND D-GAMMA-GLUTAMYL-L-TRYPTOPHAN” (APOTEX TECHNOLOGIES, INC., priority 2011, published 2015):
Blank lines part the entries; values can stand above or below the compound they belong to.

Legend:
[1] = Distribution coefficient determination, D7.4 (1-octanol / MOPS buffer pH 7.4); type: physicochemical
Description: MOPS buffer (50 mM, pH=7.4) and 1-octanol were used as the aqueous phase and the organic phase, respectively. The MOPS buffer and 1-octanol were mixed, and pre-saturated with each other prior to use.
In a typical experiment, an aqueous solution of Apo848 hydrochloride salt (H-D-Glu(D-Trp-O-isoamyl)-O-isoamy HCl) was prepared by weighing out 2 mg of the compound into a 5-mL volumetric flask, followed by addition of MOPS buffer (50 mM, pH=7.4) to volume. The resulting mixture was sonicated and vortexed to ensure complete dissolution. The resulting solution was analyzed by HPLC (Column: XTerra MS C18, […], 4.6×250 mm; Mobile phase: A=4 mM Tris, 2 mM EDTA, pH 7.4 aqueous, B=acetonitrile; Gradient method: time in minutes—B in %:0-5, 15-55, 25-55, 25.05-5, 30-5; Flow rate: 1 mL/min; Injection volume=2 μL; detector wavelength: 282 nm) to obtain the peak height (Haqu^l).
One mL of this aqueous solution was pipetted out into another 10-mL test-tube and mixed with 1 mL of 1-octanol. The mixture was vortexed for 1 hour, then centrifuged at 4000 rpm for 15 minutes. The two phases were separated. Both the aqueous phase and the organic phase were analyzed by HPLC to obtain the peak heights, Haqu^F and Horg^F. The distribution coefficient, D7.4, was calculated using one or both the following equations: D7.4=(Haqu^l−Haqu^F)/Haqu^F, or D7.4=Horg^F/Haqu^F.

[2] = tested on: human hepatocytes; assay: Biotransformation studies in human cryopreserved hepatocytes; type: in vitro ADME; conditions: for Bioconversion to Apo805 in human hepatocytes: in 3 h, 100 μM, cryopreserved human hepatocytes
Description: LiverPool® cryopreserved human hepatocytes (pooled from 10 male donors) was obtained from Celsis In Vitro Technologies. The hepatocytes were stored in liquid nitrogen until used. Just before the assay, the hepatocytes were quickly thawed at 37° C. and centrifuged at 100×g for 10 min. The media was removed and cells were re-suspended in PBS at a density of 4×10^6 cells/mL.
The compound of Formula I (100 μM) was incubated with 0.1×10^6 hepatocytes in 50 μL volume. […] The “time 0” sample was generated by adding TCA before the test compound. After brief vortexing and 10-min incubation on ice, samples were centrifuged (16,000×g, 10 min) and the supernatants were analyzed by HPLC with UV detection.
HPLC analysis of pro-drugs in SGF, SIF, plasma and hepatocytes samples: HPLC analysis was done using an Agilent 1100 series HPLC system consisting of a programmable multi-channel pump, auto-injector, vacuum degasser and HP detector controlled by Agilent HPLC218 Chem Station Rev.A.09.03 software for data acquisition and analysis. A gradient method was used for the determination of all pro-drugs and their hydrolysis products including Apo805 on an Agilent Eclipse XDB, C18 column (part #963967-902, 150×4.6 mm, 3.5 μm) with the following chromatographic conditions: • Temperature: Ambient • Mobile phase: A=Aqueous phase: 10 mM Tris-HCl, 2 mM EDTA, pH 7.4 • B=Organic phase: Acetonitrile • Gradient method: Time: 0 min 5% B, 25 min 50% B, 35 min 80% B, 45 min 5% B, 50 min 5% B. • Mobile phase flow rate: 1.0 mL/min • Injection volume: 50 μL • Data acquisition time: 30 min • Detection wavelength: 280 nm; 4 nm bandwidth, ref. 360 nm, 4 nm bandwidth
The chromatograms at λ=280 nm were analyzed. Peak area (mAU*s) was used for quantitation of pro-drugs, intermediates and H-D-Glu(D-Trp-OH)—OH (Apo805).

[3] = Pharmacokinetic studies in rats (oral bioavailability); type: in vivo, male Sprague-Dawley rats
Description: Groups of five male Sprague-Dawley rats weighing 250 to 300 g were utilized per dosing group. One day prior to dosing, venous and arterial catheters (made of 20 cm long polyurethane coiled tubing, and filled with 100 units/mL heparinized saline) were implanted into the jugular vein and carotid artery of each rat. Rats were fasted overnight prior to oral dosing and fed approximately 2 hours post-dosing. All dosing and blood sampling was performed on fully conscious rats. Tested compounds were administered either by oral gavage as solutions in water, or by intravenous injection (Apo805K1 only) as solution in 0.9% sodium chloride, final pH 7.0, at doses equivalent to 5 mg/kg (per Apo805 content). Blood (0.3 mL) was sampled from each animal from the carotid artery for up to 30 hours post-dosing, each sampling followed by an equivalent naive-blood replacement. The blood sample was immediately centrifuged (4300×g for 5 minutes at 4° C.), and frozen at −80° C. until LC/MS/MS analysis.
Metanol (200 μL) was added to plasma samples (50 μL) to precipitate plasma proteins. After brief vortexing and centrifugation, the supernatant (200 uL) was removed and dried at 40° C. under a stream if nitrogen. The sample was reconstituted in water (300 μL) and 25 μL was injected for analysis.
A Sciex API 365 LC/MS/MS spectrophotometer equipped with Ionics EP10+ and HSID, was used. A chiral column (Supelco-Astec CHIROBIOTIC™ TAG), 100×2.1 mm, 5 μm was used at ambient temperature. The mobile phase consisted of 0.1% formic acid in water (A) and 0.1% formic acid in acetonitrile (B) in a ratio of 88:12(A:B; v/v) and the flow rate was 0.6 mL/min. Positive ion electrospray ionization (ESI+) in MRM mode was used for analysis. Samples were analysed for the concentration of Apo805.
Absolute oral bioavailability of pro-drugs Apo848, a compound of Formula IA wherein G=T=isoamyl) was compared to that of Apo805K1 (potassium salt of H-D-Glu(D-Trp-OH)—OH) in male Sprague-Dawley rats. Adult animals, five per group, were dosed orally with 5 mg/kg Apo805K1, Apo848, or Apo838 and intravenously with 5 mg/kg Apo805K1.
Non-compartmental analysis was performed using WinNonlin 5.2 software, on individual animal data. Bioavailability was calculated as a ratio of AUCINF—D after oral dosing of test compound to AUCINF—D after IV dosing of Apo805K1.

[4] = Conversion of prodrug to Apo805 in rat blood; type: in vitro ADME
[5] = Caco-2 cell permeability evaluation; type: in vitro ADME; conditions: human; caco-2, 50 μM, HBSS pH 7.4, 37° C.; read-out: apparent permeability (Papp)
Description: Human intestinal absorbtion potential of a compound of Formula I was estimated in caco-2 cells permeability assay.
Caco-2 cells obtained originally from ATCC were seeded onto 0.9-cm^2 PET filter (Becton Dickinson) at a density of 90000 cells/insert. Culture conditions were maintained for 21-28 days in 20% fetal bovine serum containing eagle's minimum essential medium enriched with non-essential amino acids. Integrity of the cell monolayers was evaluated via measurement of Lucifer Yellow paracellular apparent permeability coefficient (Papp).
Prior to the addition of a test compound, growth medium was removed and monolayer was rinsed twice with Hank's balanced salt solution (HBSS) at 37° C. The filter inserts containing the cell monolayers were transferred to a separate 12-well cell culture plate containing HBSS or solution of the test compound in the bottom chamber. […] For every experiment, the test compound solution was added to the top (apical-to-basolateral transport, A>B) or bottom (basolateral-to-apical transport, B>A) chamber and its appearance in the opposite chamber over time was monitored. […] Samples were analyzed by LC-MS/MS. In case of prodrugs which undergo partial hydrolysis during the experiment, the samples were analyzed for the concentration of the prodrug and all hydrolysis products. […]

log D7.4 compared with Apo805 ([1]; more lipophilic than Apo805): higher | Bioconversion to Apo805 in human hepatocytes [2]: 30% | Apo805 formed in human cryopreserved hepatocyte ([2]; over a period of 4 hours): 31%
Structure (SMILES): COC(=O)[C@@H](Cc1c[nH]c2ccccc12)NC(=O)CC[C@@H](N)C(=O)OCc1ccccc1 [Apo804, H-D-Glu(D-Trp-OMe)-O—CH2Ph]

Log D7.4 ([1]; pH 7.4, 1-octanol/MOPS buffer): −3.22
Structure (SMILES): N[C@H](CCC(=O)N[C@H](Cc1c[nH]c2ccccc12)C(=O)O)C(=O)O [Apo805, D-gamma-glutamyl-D-tryptophan]

Absolute oral bioavailability (AUC oral / AUC intravenous Apo805K1; Apo805 measured in plasma) ([3]; rats, oral 5 mg/kg): 12%
Structure (SMILES): N[C@H](CCC(=O)N[C@H](Cc1c[nH]c2ccccc12)C(=O)[O-])C(=O)[O-].[H+].[K+] [Apo805K1, potassium salt of H-D-Glu(D-Trp-OH)—OH, reference compound]

Log D7.4 ([1]; pH 7.4, 1-octanol/MOPS buffer): 0.57 | Bioconversion to Apo805 in human hepatocytes [2]: 30% in 3 h
Structure (SMILES): COC(=O)[C@H](N)CCC(=O)N[C@H](Cc1c[nH]c2ccccc12)C(=O)OC [Apo840, H-D-Glu(D-Trp-O—Me)—O—Me, reference compound]

Structure (SMILES): CC(C)CCOC(=O)[C@H](N)CCC(=O)N[C@H](Cc1c[nH]c2ccccc12)C(=O)OCCC(C)C.Cl [Apo848, 3-methylbutyl (2R)-2-amino-5-{[(2R)-3-(1H-indol-3-yl)-1-(3-methylbutoxy)-1-oxopropan-2-yl]amino}-5-oxopentanoate hydrochloride]
improvement of the log D value of H-D-Glu(D-Trp-OH)—OH ([1]; diisoamyl ester versus parent drug): more than 10^5 fold | Log D7.4 ([1]; pH 7.4, 1-octanol/MOPS buffer): 2.1 | distribution coefficient D7.4 ([1]; pH 7.4, 1-octanol/MOPS buffer): 127 | logD ([1]; pH 7.4, 1-octanol/MOPS buffer, read-out: Log D7.4): 2.1 | Absolute oral bioavailability (AUC oral / AUC intravenous Apo805K1; Apo805 measured in plasma) ([3]; male, Sprague-Dawley, rat, in vivo, 5 mg/kg): 48% | oral bioavailability compared with Apo805 ([3]; rat, in vivo, po): enhanced | oral exposure compared with H-D-Glu(D-Trp-OH)—OH ([3]; rat, in vivo, po): improved | conversion to Apo805 in rat blood [4]: instantaneously converted | Papp at 120 min, 50 μM [5]: 2.87 ×10⁻⁶ cm/s

Log D7.4 ([1]; pH 7.4, 1-octanol/MOPS buffer): −0.89
Structure (SMILES): COC(=O)[C@@H](Cc1c[nH]c2ccccc12)NC(=O)CC[C@@H](N)C(=O)O [H-D-Glu(D-Trp-OMe)-OH, reference compound]
